# Article PMC11520371 (Journal of Pharmaceutical Health Care and Sciences, 2024)
# Experiments:
# [1] = cited from earlier work
# [2] = Plasma concentrations measured by UPLC-MSMS in the case patient; assay type: in vivo, human
# Procedure: The patient had pancreatic cancer and was admitted to Hirosaki University hospital to undergo a pancreatoduodenectomy. Written informed consent was obtained from this patient for the measurement of each biomarker and polymorphisms of pharmacokinetics-related genes. […] This regimen involved taking CAM 400 mg twice per day after breakfast and supper, RFP 450 mg once per day after breakfast, and ethambutol 750 mg once per day.
# albumin = conditions: cited from earlier work
# [3] = test system: P-glycoprotein (P-gp; gene code ABCB1); conditions: cited from earlier work
# [4] = test system: organic anion transporting polypeptide 1B1 (OATP1B1; SLCO1B1); conditions: cited from earlier work
Plasma concentration of valsartan ([2]; POD6) [ng/mL],Plasma concentration of valsartan ([2]; POD9) [ng/mL],Plasma concentration of valsartan ([2]; POD11) [ng/mL],Plasma concentration of valsartan ([2]; POD131) [ng/mL],"concentration at 10 postoperative day ([2]; male, human, plasma, POD10, read-out: Plasma concentration of valsartan) [ng/mL]","concentration at 14 postoperative day ([2]; male, human, plasma, POD14, read-out: Plasma concentration of valsartan) [ng/mL]","concentration at 26 h ([2]; male, human, in vivo, 30 mg/day, POD131, 26 h after last edoxaban tablet (C0h), edoxaban 30 mg/day, outpatient follow-up) [ng/mL]","concentration at 2 h ([2]; male, human, in vivo, 30 mg/day, POD233, 2 h after last edoxaban tablet (C2h), edoxaban 30 mg/day, outpatient follow-up) [ng/mL]","concentration at 24 h ([2]; male, human, in vivo, 60 mg once per day, POD9, 24 h after last edoxaban tablet (trough, C0h), edoxaban 60 mg once per day with RFP and CAM, onset of AKI) [ng/mL]","concentration at 8 h ([2]; male, human, in vivo, 60 mg once per day, POD10, 8 h after last edoxaban tablet (C8h), edoxaban 60 mg once per day with RFP and CAM, AKI) [ng/mL]","concentration at 24 h ([2]; male, human, in vivo, 60 mg once per day, POD11, 24 h after last edoxaban tablet (trough, C0h), AKI) [ng/mL]","concentration at 96 h ([2]; male, human, in vivo, 60 mg once per day, POD14, 96 h after last edoxaban tablet) [ng/mL]",SMILES,unchanged valsartan excreted in the urine [1] [%],albumin binding rate (albumin) [%],substrate of P-glycoprotein [3],absorbed drug excreted in its unchanged form through the kidneys [1],bioavailability [1],substrate of OATP1B1 [4]
2400,5700,10400,1000,9400,1400,,,,,,,CCCCC(=O)N(Cc1ccc(-c2ccccc2-c2nnn[nH]2)cc1)[C@H](C(=O)O)C(C)C [valsartan],13,,,,,
,,,,,,< 5,413,131,796,116,< 5,CN1CCc2nc(C(=O)N[C@@H]3C[C@@H](C(=O)N(C)C)CC[C@@H]3NC(=O)C(=O)Nc3ccc(Cl)cn3)sc2C1 [edoxaban],,55,substrate,approximately 50%,approximately 62%,not an OATP1B1 substrate
